Test results from article PMC6131501, “Urate transporter inhibitor lesinurad is a selective peroxisome proliferator-activated receptor gamma modulator (sPPARγM) in vitro” (Scientific Reports, 2018).
“Also recorded” adds a separate entry of the source. Like-named read-outs stand apart in the source and are kept apart here. No end group written: not given here. *: point of attachment. Biotin = O=C1N[C@H]2[C@H](CS[C@H]2CCCCC(=O)*)N1

Experiments:
[1] = target: T1, PPARα (Homo sapiens, UniProt Q07869); experiment: Gal4 hybrid reporter gene assay PPARα; format: cell-based; conditions: Gal4 hybrid reporter, HEK293T, 12-14 h; mean ± SEM, at least three experiments
T1 construct: expressed in transfected cells; host or cells: HEK293T
T1 sequence (Q07869 239-466 limits assumed): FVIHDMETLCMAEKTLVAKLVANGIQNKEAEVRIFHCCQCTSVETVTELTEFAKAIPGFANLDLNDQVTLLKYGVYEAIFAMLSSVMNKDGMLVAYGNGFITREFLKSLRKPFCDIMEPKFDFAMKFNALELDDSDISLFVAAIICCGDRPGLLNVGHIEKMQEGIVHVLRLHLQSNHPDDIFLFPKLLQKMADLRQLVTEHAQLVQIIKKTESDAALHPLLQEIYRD
Source text: (§1) These in vitro test systems are based on a constitutively expressed hybrid receptor composed of the ligand binding domain of the respective human nuclear receptor and the DNA binding domain of the yeast receptor Gal4. A Gal4-inducible firefly luciferase serves as reporter gene and a constitutively expressed renilla luciferase is used for normalization of transfection efficacy and internal toxicity control[18],[19]. […] The Gal4-fusion receptor plasmids pFA-CMV-hPPARα-LBD[50], pFA-CMV-hPPARγ-LBD[50], pFA-CMV-hPPARδ-LBD[50], pFA-CMV-hLXRα-LBD[51], pFA-CMV-hLXRβ-LBD[51], pFA-CMV-hRXRα-LBD[52], pFA-CMV-hRXRβ-LBD[52], pFA-CMV-hRXRγ-LBD[52], pFA-CMV-hRARα-LBD[52], pFA-CMV-hRARβ-LBD[52], pFA-CMV-hRARγ-LBD[52], pFA-CMV-hFXR-LBD[53], pFA-CMV-hVDR-LBD[52], pFA-CMV-hCAR-LBD[52] and pFA-CMV-hPXR-LBD[52] coding for the hinge region and ligand binding domain (LBD) of the canonical isoform of the respective nuclear receptor have been reported previously. pFR-Luc (Stratagene) was used as reporter plasmid and pRL-SV40 (Promega) for normalization of transfection efficiency and cell growth.
(§2) HEK293T cells were grown in DMEM high glucose, supplemented with 10% FCS, sodium pyruvate (1 mM), penicillin (100 U/mL) and streptomycin (100 μg/mL) at 37 °C and 5% CO2. The day before transfection, HEK293T cells were seeded in 96-well plates (3·10^4 cells/well). Before transfection, medium was changed to Opti-MEM without supplements. Transient transfection was carried out using Lipofectamine LTX reagent (Invitrogen) according to the manufacturer’s protocol with pFR-Luc (Stratagene), pRL-SV40 (Promega) and the corresponding Gal4-fusion nuclear receptor plasmid. 5 h after transfection, medium was changed to Opti-MEM supplemented with penicillin (100 U/mL), streptomycin (100 μg/mL), now additionally containing 0.1% DMSO and the respective test compound or 0.1% DMSO alone as untreated control. Each concentration was tested in duplicates and each experiment was repeated independently at least three times. Following overnight (12-14 h) incubation with the test compounds, cells were assayed for luciferase activity using Dual-Glo™ Luciferase Assay System (Promega) according to the manufacturer’s protocol. Luminescence was measured with an Infinite M200 luminometer (Tecan Deutschland GmbH). […] Fold activation was obtained by dividing the mean RLU of a test compound at a respective concentration by the mean RLU of untreated control.

[2] = target: T2, PPARγ (Homo sapiens, UniProt P37231); experiment: Gal4 hybrid reporter gene assay PPARγ; format: cell-based; conditions: Gal4 hybrid reporter, HEK293T, 12-14 h; mean ± SEM, at least three experiments
T2 construct: expressed in transfected cells; host or cells: HEK293T
T2 sequence (P37231 238-503 limits assumed): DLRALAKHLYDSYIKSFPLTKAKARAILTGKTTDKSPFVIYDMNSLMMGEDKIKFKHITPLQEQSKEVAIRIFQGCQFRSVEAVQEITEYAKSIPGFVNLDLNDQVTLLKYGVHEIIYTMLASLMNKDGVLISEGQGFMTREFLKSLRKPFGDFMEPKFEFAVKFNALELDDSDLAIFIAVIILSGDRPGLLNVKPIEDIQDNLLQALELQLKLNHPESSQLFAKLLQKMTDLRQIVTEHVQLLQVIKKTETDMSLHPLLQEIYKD
Source text: as §1, §2

[3] = system: PPARα; conditions: cited from earlier work
[4] = system: murine PPARγ; conditions: read-out: PPARγ (EC50) literature; cited from earlier work
[5] = system: PPARγ; conditions: cited from earlier work
[6] = system: 3T3-L1 mouse fibroblasts; parameters: method as in PMID 19048458; conditions: cited from earlier work
[7] = system: adiponectin plasma levels; parameters: method as in PMID 19048458; conditions: in men; cited from earlier work
[8] = parameters: method as in PMID 18274627; conditions: HEK293T cells; cited from earlier work
[9] = system: 3T3-L1 adipocytes; experiment: Differentiation of 3T3-L1 adipocytes, Oil Red O staining; format: cell-based, murine; conditions: rosiglitazone 2 μM; lesinurad up to 50 μM
Experimental: For this, 3T3-L1 cells were treated with insulin, dexamethasone and isobutylmethylxanthine (IBMX) to induce their differentiation into mature adipocytes. […] 3T3-L1 cells were subcultured in DMEM containing 10% newborn calf serum in a humidified atmosphere at 37 °C, 5% CO2. Cells were differentiated into adipocytes within 14 days according to the method[54] reported by Zebisch and colleagues. In brief, cells were seeded in 6-well plates ([…]). […] At day 5, medium was changed to contain only insulin for another two days. Cells were then kept for lipid droplet accumulation in basal medium without additions until day 15. […] Differentiation of 3T3-L1 cells to adipocytes was confirmed by Oil Red O staining. For this, cells were washed with PBS and then fixed for 60 min with a formaldehyde solution (4% in PBS). Subsequently, cells were rinsed with 60% isopropanol and incubated with Oil Red O solution (0.3%) for 120 min.

[10] = system: PPARγ-regulated genes in 3T3-L1 adipocytes; experiment: PPARγ target gene quantification in 3T3-L1 adipocytes (qPCR); format: cell-based, murine
Experimental: 3T3-L1 cells were cultured and differentiated as described above. Cells were then lysed using TRIzol reagent (Ambion, Life Technologies, Carlsbad, CA, USA), and mRNA was isolated following the manufacturer’s protocol. DNA contaminations were digested using DNase (DNase I, RNase-free kit; Thermo Scientific, Waltham, MA, USA) and mRNA concentrations were measured with a NanoDrop2000 spectrophotometer (Thermo Scientific, Waltham, MA, USA). Subsequently, reverse transcription was performed using the high capacity RNA-to-cDNA kit (Applied Biosystems, Foster City, CA, USA). Quantitative real-time PCR was performed using specific primers for CD36, […] and CPT1A with a StepOnePlus real-time PCR system (Applied Biosystems, Foster City, CA, USA). Non-POU domain containing octamer binding protein (NonO) was used as reference gene for 3T3-L1. All samples were measured in duplicate and were analyzed using the ΔΔCt method. The following PCR primers were used: Adiponectin: 5′-TGACGACACCAAAAGGGCTC-3′ (fwd) and 5′-CACAAGTTCCCTTGGGTGGA-3′ (rev); CD36: 5′-TGCTGGAGCTGTTATTGGTG-3′ (fwd) and 5′-CATGAGAATGCCTCCAAACA-3′ (rev); FABP4: 5′-AGAAGTGGGAGTGGGCTTTG-3′ (fwd) and 5′-ACTCTCTGACCGGATGGTGA-3′ (rev); GLUT4: 5′-TGAAGAACGGATAGGGAGCAG-3′ (fwd) and 5′-GAAGTGCAAAGGGTGAGTGAG-3′ (rev); NonO: 5′-TGCTCCTGTGCCACCTGGTACTC-3′ (fwd) and 5′-CCGGAGCTGGACGGTTGAATGC-3′ (rev).
Results (expressed as mean ± SEM % relative mRNA expression; n = 3): Adiponectin: untreated (0.1% DMSO): 124 ± 45%; […];

[11] = system: PXR; parameters: method as in PMID 16565514; conditions: literature value; cited from earlier work
[12] = target: recombinant PPARγ LBD ligand binding domain fused to N-terminal GFP (human); experiment: AlphaScreen or HTRF; homogeneous time-resolved FRET; 12 nM GFP-PPARγ LBD (acceptor) and 12 nM streptavidin-terbium cryptate with biotinylated coactivator peptide (donor); lesinurad at varying concentrations, 1% DMSO; 25 mM HEPES pH 7.5, 150 mM KF, 5% glycerol, 0.1% CHAPS, 5 mM DTT; 2 h at RT; referenced to recruitment with 1 μM rosiglitazone
Sequence of recombinant PPARγ LBD ligand binding domain fused to N-terminal GFP (human) (P37231 whole entry, the tested form may be a part): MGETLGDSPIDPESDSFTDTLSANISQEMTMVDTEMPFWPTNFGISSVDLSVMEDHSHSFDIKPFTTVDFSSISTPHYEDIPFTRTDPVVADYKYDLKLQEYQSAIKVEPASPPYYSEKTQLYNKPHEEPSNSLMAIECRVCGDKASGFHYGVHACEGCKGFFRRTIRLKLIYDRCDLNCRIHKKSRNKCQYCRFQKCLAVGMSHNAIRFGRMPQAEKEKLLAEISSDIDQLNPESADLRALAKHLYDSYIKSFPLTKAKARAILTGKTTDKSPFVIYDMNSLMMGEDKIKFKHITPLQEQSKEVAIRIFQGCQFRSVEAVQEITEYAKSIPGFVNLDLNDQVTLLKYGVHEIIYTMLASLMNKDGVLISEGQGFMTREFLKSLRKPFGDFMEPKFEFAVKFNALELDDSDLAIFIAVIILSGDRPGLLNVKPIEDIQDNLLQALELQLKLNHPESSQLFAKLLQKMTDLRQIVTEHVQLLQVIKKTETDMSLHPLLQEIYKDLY

In the case of CCO[C@@H](Cc1ccc(OCCc2ccc(OS(C)(=O)=O)cc2)cc1)C(=O)O [tesaglitazar], the EC50 [1] is given as 99 ± 5 nM, the EC50 [2] is given as 49 ± 5 nM and the EC50 ([3]; hybrid transactivation assay, 40 hours incubation, read-out: PPARα (EC50) literature) is given as 1700 nM. For the same molecule, the EC50 [4] was 250 nM.

In the case of CCc1oc2ccccc2c1C(=O)c1cc(Br)c(O)c(Br)c1 [benzbromarone], the PPARγ literature activity ([5]; no precise activity value reported) is given as “active[24]***”, the “expression of CD36, adiponectin and FABP4 (aP2)” value [6] is given as “significantly induced” and the adiponectin plasma levels [7] is given as “enhanced adiponectin plasma levels”. The “expression of lipoprotein lipase (LPL) and acyl-CoA-synthetase” value [8] was “induced”.

With CN(CCOc1ccc(CC2SC(=O)NC2=O)cc1)c1ccccn1 (centres unmarked) [rosiglitazone] the “lipid accumulation during differentiation (Oil Red O staining)” value [9] was “massive accumulation of lipid droplets; also recorded: massive storage of fat”, the “Adiponectin relative mRNA expression” value [10] was 455 ± 111% and the “CD36 relative mRNA expression” value [10] was 468 ± 8%. The “FABP4 relative mRNA expression” value [10] was 338 ± 46%, the “GLUT4 relative mRNA expression” value [10] was 695 ± 145% and the EC50 ([5]; literature value) was […].

For O=C(O)[C@H](Oc1cccc(C(F)(F)F)c1)c1ccc(Cl)cc1 [arhalofenic acid], the EC50 [2] is given as 470 ± 20 nM and the EC50 [4] is given as 12000 nM.

For CCOP(=O)(OCC)C(=Cc1cc(C(C)(C)C)c(O)c(C(C)(C)C)c1)P(=O)(OCC)OCC [SR12813], the EC50 [11] is listed as 140 nM.

In the case of CC(C)(Oc1ccc(C(=O)c2ccc(Cl)cc2)cc1)C(=O)O [fenofibric acid], the EC50 [1] is given as 6500 ± 500 nM and the EC50 ([3]; literature value) is given as […].

CC(=O)NCCOC(=O)[C@H](Oc1cccc(C(F)(F)F)c1)c1ccc(Cl)cc1 [arhalofenate] showed an EC50 [2] of 5400 ± 1100 nM.

Molecule Biotin-NLVPDAASKHKQLSELLRGGSGS [CBP derived peptide (biotin-…)] has a % recruitment with lesinurad relative to 1 μM rosiglitazone [12] of 59% and an EC50 of lesinurad for induced recruitment [12] of 44000 nM.
